As usually defined, the inhibition is the change of the read-out against control, counted positive when it falls.

S. aureus GyrB ATPase, sequence (P0A0K8 whole entry): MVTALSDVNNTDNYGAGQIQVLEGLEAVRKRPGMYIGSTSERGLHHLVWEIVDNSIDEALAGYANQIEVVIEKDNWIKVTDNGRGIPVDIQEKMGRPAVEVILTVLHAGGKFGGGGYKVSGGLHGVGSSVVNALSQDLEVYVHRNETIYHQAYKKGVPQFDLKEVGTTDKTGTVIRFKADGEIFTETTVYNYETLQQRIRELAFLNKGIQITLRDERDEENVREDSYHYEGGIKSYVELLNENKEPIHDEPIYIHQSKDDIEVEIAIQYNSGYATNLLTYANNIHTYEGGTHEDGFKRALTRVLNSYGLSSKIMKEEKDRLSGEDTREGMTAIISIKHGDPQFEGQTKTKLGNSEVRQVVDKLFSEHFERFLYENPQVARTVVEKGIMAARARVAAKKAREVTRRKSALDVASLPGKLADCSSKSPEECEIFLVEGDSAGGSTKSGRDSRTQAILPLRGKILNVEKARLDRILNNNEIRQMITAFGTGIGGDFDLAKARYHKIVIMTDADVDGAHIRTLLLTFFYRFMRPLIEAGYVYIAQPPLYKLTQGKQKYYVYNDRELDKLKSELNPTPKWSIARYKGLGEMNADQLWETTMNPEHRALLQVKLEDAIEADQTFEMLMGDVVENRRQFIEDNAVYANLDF
S. aureus GyrB ATPase, sequence (P0AES4 whole entry, further chain): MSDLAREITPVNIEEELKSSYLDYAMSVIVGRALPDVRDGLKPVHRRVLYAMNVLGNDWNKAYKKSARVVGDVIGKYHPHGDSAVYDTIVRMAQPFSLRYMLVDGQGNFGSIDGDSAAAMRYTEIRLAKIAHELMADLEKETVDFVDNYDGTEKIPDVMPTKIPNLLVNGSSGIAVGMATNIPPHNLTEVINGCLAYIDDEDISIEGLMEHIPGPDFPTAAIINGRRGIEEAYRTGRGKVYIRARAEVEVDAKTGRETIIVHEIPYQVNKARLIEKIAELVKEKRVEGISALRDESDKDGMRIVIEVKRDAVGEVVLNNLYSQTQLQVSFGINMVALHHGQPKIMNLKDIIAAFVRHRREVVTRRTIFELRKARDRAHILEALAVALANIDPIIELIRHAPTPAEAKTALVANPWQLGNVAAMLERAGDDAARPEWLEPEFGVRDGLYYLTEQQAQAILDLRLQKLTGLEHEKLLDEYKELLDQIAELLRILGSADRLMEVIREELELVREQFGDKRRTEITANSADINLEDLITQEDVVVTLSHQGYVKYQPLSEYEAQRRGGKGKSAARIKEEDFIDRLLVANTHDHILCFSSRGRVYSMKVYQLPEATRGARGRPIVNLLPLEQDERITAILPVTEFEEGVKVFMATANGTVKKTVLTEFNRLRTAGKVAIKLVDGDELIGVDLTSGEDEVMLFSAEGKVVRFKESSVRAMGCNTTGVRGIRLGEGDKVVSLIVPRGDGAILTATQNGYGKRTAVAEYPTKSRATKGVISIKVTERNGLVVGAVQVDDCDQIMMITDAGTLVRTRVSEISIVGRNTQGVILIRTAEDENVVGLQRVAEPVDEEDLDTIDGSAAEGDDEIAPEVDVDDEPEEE

This assay has as its target S. aureus GyrB ATPase (Staphylococcus aureus, UniProt P0A0K8). The assay can be described thus: biochemical. To be noted: compound at 1 μM; one value per test if tested more than once; read-out: % Inhibition of S. aureus GyrB ATPase. The method, boiled down:
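IC50 values derive from 10-point titrations of compound (in DMSO). Phosphate formed from 250 μM ATP was quantified by acidic molybdate/malachite green after quenching.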
With `CCNC(=O)Nc1cc(-c2nc(C(F)(F)F)cs2)c(-c2ccc3c(c2)c(=O)c(C(=O)NC(COC)COC)cn3C2CC2)cn1` [Example 327, 1-Cyclopropyl-N-(1,3-dimethoxy-propan-2-yl)-6-(6-(3-ethylureido)-4-(4-(trifluoromethyl)thiazol-2-yl)pyridin-3-yl)-4-oxo-1,4-dihydroquinoline-3-carboxamide], the inhibition at 1 µM came out at 100%. Take `CCNC(=O)Nc1cc(-c2nc(C(F)(F)F)cs2)c(-c2ccc3c(c2)c(=O)c(C(=O)NCC(O)CO)cn3C2CC2)cn1` (stereo not drawn) [Example 328, 1-Cyclopropyl-N-(2,3-dihydroxy-propyl)-6-(6-(3-ethylureido)-4-(4-(trifluoromethyl)thiazol-2-yl)pyridin-3-yl)-4-oxo-1,4-dihydroquinoline-3-carboxamide]: the inhibition at 1 µM came to 109%. The result for `CCNC(=O)Nc1cc(-c2nc(C(F)(F)F)cs2)c(-c2ccc3c(c2)c(=O)c(C(=O)NCCO)cn3Cc2noc(C3CC3)n2)cn1` [Example 329] reads 97%. As to `CCNC(=O)Nc1cc(-c2nc(C(F)(F)F)cs2)c(-c2ccc3c(=O)c(C(=O)NCCO)cn(CC)c3c2)cn1` [Example 330, 1-Ethyl-7-{6-[(ethylcarbamoyl)amino]-4-[4-(trifluoromethyl)-1,3-thiazol-2-yl]pyridin-3-yl}-N-(2-hydroxyethyl)-4-oxo-1,4-dihydroquinoline-3-carboxamide], the inhibition at 1 µM was found to be 109%.

As for `CCNC(=O)Nc1cc(-c2nc(C(F)(F)F)cs2)c(-c2ccc3c(=O)c(C(=O)NCCCO)cn(CC)c3c2)cn1` [Example 331, 1-Ethyl-7-{6-[(ethylcarbamoyl)amino]-4-[4-(trifluoromethyl)-1,3-thiazol-2-yl]pyridin-3-yl}-N-(3-hydroxypropyl)-4-oxo-1,4-dihydroquinoline-3-carboxamide], the inhibition at 1 µM came out at 109%. Consider `CCNC(=O)Nc1cc(-c2nc(C(F)(F)F)cs2)c(-c2ccc3c(=O)c(C(=O)NCCN(C)C)cn(CC)c3c2)cn1` [Example 332, N-[2-(dimethylamino)ethyl]-1-ethyl-7-{6-[(ethylcarbamoyl)amino]-4-[4-(trifluoromethyl)-1,3-thiazol-2-yl]pyridin-3-yl}-4-oxo-1,4-dihydroquinoline-3-carboxamide], for which the inhibition at 1 µM was 109%.

Consider `CCNC(=O)Nc1cc(-c2nc(C(F)(F)F)cs2)c(-c2ccc3c(=O)c(C(=O)NCCN4CCOCC4)cn(CC)c3c2)cn1` [Example 333, 1-Ethyl-7-{6-[(ethylcarbamoyl)amino]-4-[4-(trifluoromethyl)-1,3-thiazol-2-yl]pyridin-3-yl}-N-[2-(morpholin-4-yl)ethyl]-4-oxo-1,4-dihydroquinoline-3-carboxamide], for which the inhibition at 1 µM is 106%.

`CCNC(=O)Nc1cc(-c2nc(C(F)(F)F)cs2)c(-c2ccc3c(=O)c(C(=O)NCCN4CCN(C)CC4)cn(CC)c3c2)cn1` [Example 334, 1-Ethyl-7-{6-[(ethylcarbamoyl)amino]-4-[4-(trifluoromethyl)-1,3-thiazol-2-yl]pyridin-3-yl}-N-[2-(4-methylpiperazin-1-yl)ethyl]-4-oxo-1,4-dihydroquinoline-3-carboxamide]: the inhibition at 1 µM was 95%.

On to `CCNC(=O)Nc1cc(-c2nc(C(F)(F)F)cs2)c(-c2ccc3c(=O)c(C(=O)NC)cn(CCC(C)C)c3c2)cn1` [Example 335, 7-{6-[(ethylcarbamoyl)amino]-4-[4-(trifluoromethyl)-1,3-thiazol-2-yl]pyridin-3-yl}-N-methyl-1-(3-methylbutyl)-4-oxo-1,4-dihydroquinoline-3-carboxamide], for which the inhibition at 1 µM was found to be 107%. Consider `CCNC(=O)Nc1cc(-c2nc(C(F)(F)F)cs2)c(-c2ccc3c(=O)c(C(=O)NCCO)cn(CCC(C)C)c3c2)cn1` [Example 336, 7-{6-[(ethylcarbamoyl)amino]-4-[4-(trifluoromethyl)-1,3-thiazol-2-yl]pyridin-3-yl}-N-(2-hydroxyethyl)-1-(3-methylbutyl)-4-oxo-1,4-dihydroquinoline-3-carboxamide], for which the inhibition at 1 µM came out at 109%. Take `CCNC(=O)Nc1cc(-c2nc(C(F)(F)F)cs2)c(-c2ccc3c(=O)c(C(=O)NCCCO)cn(CCC(C)C)c3c2)cn1` [Example 337, 7-{6-[(ethylcarbamoyl)amino]-4-[4-(trifluoromethyl)-1,3-thiazol-2-yl]pyridin-3-yl}-N-(3-hydroxypropyl)-1-(3-methylbutyl)-4-oxo-1,4-dihydroquinoline-3-carboxamide]: the inhibition at 1 µM stood at 106%.

Regarding `CCNC(=O)Nc1cc(-c2nc(C(F)(F)F)cs2)c(-c2ccc3c(=O)c(C(=O)NCCN(C)C)cn(CCC(C)C)c3c2)cn1` [Example 338, N-[2-(dimethylamino)ethyl]-7-{6-[(ethylcarbamoyl)amino]-4-[4-(trifluoromethyl)-1,3-thiazol-2-yl]pyridin-3-yl}-1-(3-methylbutyl)-4-oxo-1,4-dihydroquinoline-3-carboxamide], the inhibition at 1 µM was determined as 99%. Turning to `CCNC(=O)Nc1cc(-c2nc(C(F)(F)F)cs2)c(-c2ccc3c(=O)c(C(=O)NCCN4CCOCC4)cn(CCC(C)C)c3c2)cn1` [Example 339, 7-{6-[(ethylcarbamoyl)amino]-4-[4-(trifluoromethyl)-1,3-thiazol-2-yl]pyridin-3-yl}-1-(3-methylbutyl)-N-[2-(morpholin-4-yl)ethyl]-4-oxo-1,4-dihydroquinoline-3-carboxamide], the inhibition at 1 µM was 109%. Turning to `CCNC(=O)Nc1cc(-c2nc(C(F)(F)F)cs2)c(-c2ccc3c(=O)c(C(=O)NCCN4CCN(C)CC4)cn(CCC(C)C)c3c2)cn1` [Example 340, 7-{6-[(ethylcarbamoyl)amino]-4-[4-(trifluoromethyl)-1,3-thiazol-2-yl]pyridin-3-yl}-1-(3-methylbutyl)-N-[2-(4-methylpiperazin-1-yl)ethyl]-4-oxo-1,4-dihydroquinoline-3-carboxamide], the inhibition at 1 µM was 93%.

Regarding `CCNC(=O)Nc1cc(-c2nc(C(F)(F)F)cs2)c(-c2ccc3c(=O)c(C(=O)NC)cn(CC(C)C)c3c2)cn1` [Example 341, 7-{6-[(ethylcarbamoyl)amino]-4-[4-(trifluoromethyl)-1,3-thiazol-2-yl]pyridin-3-yl}-N-methyl-1-(2-methylpropyl)-4-oxo-1,4-dihydroquinoline-3-carboxamide], the inhibition at 1 µM worked out at 99%. In the case of `CCNC(=O)Nc1cc(-c2nc(C(F)(F)F)cs2)c(-c2ccc3c(=O)c(C(=O)NCCO)cn(CC(C)C)c3c2)cn1` [Example 342, 7-{6-[(ethylcarbamoyl)amino]-4-[4-(trifluoromethyl)-1,3-thiazol-2-yl]pyridin-3-yl}-N-(2-hydroxyethyl)-1-(2-methylpropyl)-4-oxo-1,4-dihydroquinoline-3-carboxamide], the inhibition at 1 µM amounted to 99%. The result for `CCNC(=O)Nc1cc(-c2nc(C(F)(F)F)cs2)c(-c2ccc3c(=O)c(C(=O)NCCCO)cn(CC(C)C)c3c2)cn1` [Example 343, 7-{6-[(ethylcarbamoyl)amino]-4-[4-(trifluoromethyl)-1,3-thiazol-2-yl]pyridin-3-yl}-N-(3-hydroxypropyl)-1-(2-methylpropyl)-4-oxo-1,4-dihydroquinoline-3-carboxamide] reads 98%; that for `CCNC(=O)Nc1cc(-c2nc(C(F)(F)F)cs2)c(-c2ccc3c(=O)c(C(=O)NCCN(C)C)cn(CC(C)C)c3c2)cn1` [Example 344, N-[2-(dimethylamino)ethyl]-7-{6-[(ethylcarbamoyl)amino]-4-[4-(trifluoromethyl)-1,3-thiazol-2-yl]pyridin-3-yl}-1-(2-methylpropyl)-4-oxo-1,4-dihydroquinoline-3-carboxamide], 95%. For `CCNC(=O)Nc1cc(-c2nc(C(F)(F)F)cs2)c(-c2ccc3c(=O)c(C(=O)NCCN4CCOCC4)cn(CC(C)C)c3c2)cn1` [Example 345, 7-{6-[(ethylcarbamoyl)amino]-4-[4-(trifluoromethyl)-1,3-thiazol-2-yl]pyridin-3-yl}-1-(2-methylpropyl)-N-[2-(morpholin-4-yl)ethyl]-4-oxo-1,4-dihydroquinoline-3-carboxamide], the inhibition at 1 µM is 98%. With `CCNC(=O)Nc1cc(-c2nc(C(F)(F)F)cs2)c(-c2ccc3c(=O)c(C(=O)NCCN4CCN(C)CC4)cn(CC(C)C)c3c2)cn1` [Example 346, 7-{6-[(ethylcarbamoyl)amino]-4-[4-(trifluoromethyl)-1,3-thiazol-2-yl]pyridin-3-yl}-N-[2-(4-methylpiperazin-1-yl)ethyl]-1-(2-methylpropyl)-4-oxo-1,4-dihydroquinoline-3-carboxamide], the inhibition at 1 µM came out at 87%. Regarding `CCCn1cc(C(=O)NC)c(=O)c2ccc(-c3cnc(NC(=O)NCC)cc3-c3nc(C(F)(F)F)cs3)cc21` [Example 347, 7-{6-[(ethylcarbamoyl)amino]-4-[4-(trifluoromethyl)-1,3-thiazol-2-yl]pyridin-3-yl}-N-methyl-4-oxo-1-propyl-1,4-dihydroquinoline-3-carboxamide], the inhibition at 1 µM was 100%. With `CCCn1cc(C(=O)NCCO)c(=O)c2ccc(-c3cnc(NC(=O)NCC)cc3-c3nc(C(F)(F)F)cs3)cc21` [Example 348, 7-{6-[(ethylcarbamoyl)amino]-4-[4-(trifluoromethyl)-1,3-thiazol-2-yl]pyridin-3-yl}-N-(2-hydroxyethyl)-4-oxo-1-propyl-1,4-dihydroquinoline-3-carboxamide] the figure was 98%; with `CCCn1cc(C(=O)NCCCO)c(=O)c2ccc(-c3cnc(NC(=O)NCC)cc3-c3nc(C(F)(F)F)cs3)cc21` [Example 349, 7-{6-[(ethylcarbamoyl)amino]-4-[4-(trifluoromethyl)-1,3-thiazol-2-yl]pyridin-3-yl}-N-(3-hydroxypropyl)-4-oxo-1-propyl-1,4-dihydroquinoline-3-carboxamide], 108%; with `CCCn1cc(C(=O)NCCN(C)C)c(=O)c2ccc(-c3cnc(NC(=O)NCC)cc3-c3nc(C(F)(F)F)cs3)cc21` [Example 350, N-[2-(dimethylamino)ethyl]-7-{6-[(ethylcarbamoyl)amino]-4-[4-(trifluoromethyl)-1,3-thiazol-2-yl]pyridin-3-yl}-4-oxo-1-propyl-1,4-dihydroquinoline-3-carboxamide], 96%.

Values taken from patent US8283361B2 (AstraZeneca AB, priority 2008, dated 2012).
